Assay results taken from ChEMBL document CHEMBL1158171, “Bioactivities of a series of phosphodiesterase type 5 (PDE-5) inhibitors as modelled by MIA-QSAR” (Eur J Med Chem, 2008).

Experiments:
[1] = Octanol-water partition coefficient, log P of the compound; assay type: physicochemical
[2] = biological target: cGMP-specific 3',5'-cyclic phosphodiesterase (Homo sapiens, UniProt O76074)

SMILES | logP [1] | IC50 [2] [nM]
CCN1C(=O)c2c(nc(C(N)=O)n2Cc2ccc(OC)c(Br)c2)N2C1=N[C@@H]1CCC[C@@H]12 | 3.3 | 
CCOc1nc2c(n1Cc1ccc(OC)cc1)C(=O)N(CC)C1=N[C@@H]3CCC[C@@H]3N12 | 4.1 | 
CCN1C(=O)c2c(nc(C(N)=O)n2Cc2ccc(O)c(Cl)c2)N2C1=N[C@@H]1CCC[C@@H]12 | 2.76 | 
CCN1C(=O)c2c(nc(OCc3ccccc3)n2Cc2ccc(O)c(Cl)c2)N2C[C@@H](Cc3ccccc3)N=C12 | 7.09 | 
CCN1C(=O)c2c(nc(OC)n2Cc2ccc(OC)c(Cl)c2)N2C1=N[C@@H]1CCC[C@@H]12 | 4.32 | 
CCN1C(=O)c2c(nc(OC)n2Cc2ccc(O)c(Br)c2)N2C1=N[C@@H]1CCC[C@@H]12 | 4.33 | 
CCN1C(=O)c2c(nc(C(N)=O)n2Cc2ccc(O)c(Br)c2)N2C1=N[C@@H]1CCC[C@@H]12 | 3.03 | 
CCN1C(=O)c2c(nc(C(N)=O)n2Cc2ccc(OC)c(Cl)c2)N2C[C@@H](Cc3ccccc3)N=C12 | 4.32 | 
CCN1C(=O)c2c(nc(OC)n2Cc2ccc(OC)c(C#N)c2)N2C[C@@H](Cc3ccccc3)N=C12 | 5.1 | 
CCN1C(=O)C2C(N=C(OC)N2Cc2ccc(OC)c(Cl)c2)N2C[C@@H](Cc3ccccc3)N=C12 (some centres undefined) |  | 1.58
CCN1C(=O)c2c(nc(C(N)=O)n2Cc2ccc(O)c(Cl)c2)N2C[C@@H](Cc3ccccc3)N=C12 | 4.06 | 
CCN1C(=O)c2c(nc(C#N)n2Cc2ccc(OC)cc2)N2C1=N[C@@H]1CCC[C@@H]12 | 3.59 | 
CCN1C(=O)c2c(nc(OC)n2Cc2ccc(OC)c(Br)c2)N2C1=N[C@@H]1CCC[C@@H]12 | 4.59 | 
CCOc1nc2c(n1Cc1ccc(OC)c(Br)c1)C(=O)N(CC)C1=N[C@@H]3CCC[C@@H]3N12 | 4.93 | 
CCN1C(=O)c2c(nc(Cc3ccccc3)n2Cc2ccccc2)N2C1=N[C@@H]1CCC[C@@H]12 | 5.47 | 
CCN1C(=O)C2C(N=CN2Cc2ccc(O)c(Br)c2)N2C1=N[C@@H]1CCC[C@@H]12 (some centres undefined) |  | 6.31
CCN1C(=O)c2c(nc(C(=O)OC)n2Cc2ccc(OC)cc2)N2C1=N[C@@H]1CCC[C@@H]12 | 3.38 | 
CCN1C(=O)c2c(nc(C#Cc3ccccc3)n2Cc2ccc(Cl)cc2)N2C1=N[C@@H]1CCC[C@@H]12 | 6.19 | 
CCN1C(=O)c2c(nc(Cc3ccccc3)n2Cc2ccc3c(c2)OCO3)N2C1=N[C@@H]1CCC[C@@H]12 | 5.25 | 
CCN1C(=O)c2c(nc(Cc3ccccc3)n2Cc2ccc(Cl)cc2)N2C1=N[C@@H]1CCC[C@@H]12 | 6.03 | 

SMILES | logP [1] | IC50 [2] [nM]
CCN1C(=O)c2c(nc(C(=O)NC)n2Cc2ccc(O)c(Cl)c2)N2C1=N[C@@H]1CCC[C@@H]12 | 3 | 
CCN1C(=O)c2c(nc(Cc3ccccc3)n2Cc2ccc(OC)c(Cl)c2)N2C1=N[C@@H]1CCC[C@@H]12 | 5.9 | 
CCN1C(=O)c2c(nc(C(F)(F)F)n2Cc2ccc(O)cc2)N2C1=N[C@@H]1CCC[C@@H]12 | 4.22 | 
CCN1C(=O)c2c(nc(OC)n2Cc2ccc(OC)c(Br)c2)N2C[C@@H](Cc3ccccc3)N=C12 | 5.89 | 
CCN1C(=O)c2c(ncn2Cc2ccc(OC)c(Cl)c2)N2C1=N[C@@H]1CCC[C@@H]12 | 3.47 | 
CCSc1nc2c(n1Cc1ccc(O)cc1)C(=O)N(CC)C1=N[C@@H]3CCC[C@@H]3N12 | 4.41 | 
CCN1C(=O)c2c(nc(C(N)=O)n2Cc2ccc(OC)cc2)N2C1=N[C@@H]1CCC[C@@H]12 | 2.47 | 
CCN1C(=O)c2c(nc(C(N)=O)n2Cc2ccc(O)cc2)N2C1=N[C@@H]1CCC[C@@H]12 | 2.2 | 
CCN1C(=O)c2c(nc(OC)n2Cc2ccc(O)c(Cl)c2)N2C1=N[C@@H]1CCC[C@@H]12 | 4.06 | 
CCN1C(=O)c2c(nc(OC)n2Cc2ccc(O)c(Br)c2)N2C[C@@H](Cc3ccccc3)N=C12 | 5.63 | 
CCOc1nc2c(n1Cc1ccc(OC)c(Cl)c1)C(=O)N(CC)C1=N[C@@H]3CCC[C@@H]3N12 | 4.66 | 
CCN1C(=O)c2c(nc(C(=O)NC)n2Cc2ccc(OC)c(Cl)c2)N2C1=N[C@@H]1CCC[C@@H]12 | 3.26 | 
CCN1C(=O)c2c(nc(Cc3ccccc3)n2Cc2ccc(C)cc2)N2C1=N[C@@H]1CCC[C@@H]12 | 5.95 | 
CCN1C(=O)c2c(nc(C#Cc3ccccc3)n2Cc2ccc(OC)cc2)N2C1=N[C@@H]1CCC[C@@H]12 | 5.5 | 
CCN1C(=O)c2c(nc(OC)n2Cc2ccc(O)c(Cl)c2)N2C[C@@H](Cc3ccccc3)N=C12 | 5.36 | 
CCN1C(=O)c2c(nc(C#Cc3ccccc3)n2Cc2ccc(O)cc2)N2C1=N[C@@H]1CCC[C@@H]12 | 5.24 | 
CCSc1nc2c(n1Cc1ccc(OC)cc1)C(=O)N(CC)C1=N[C@@H]3CCC[C@@H]3N12 | 4.67 | 
CCN1C(=O)c2c(ncn2Cc2ccc(OC)c(Br)c2)N2C1=N[C@@H]1CCC[C@@H]12 | 3.74 | 
CCOc1nc2c(n1Cc1ccc(O)c(Cl)c1)C(=O)N(CC)C1=N[C@@H]3CCC[C@@H]3N12 | 4.4 | 
